Some results are limits rather than exact numbers.

Assay [1] deals with differentiated L6-myotubes. Kind of assay: cAMP production relative to isoprenaline (Biological example 2 of WO 2019/053427). Format: cell-based. The conditions noted are these: 0.25 h, compound at 10 μM, activity relative to isoproterenol at 10 μM. A digest of the protocol:
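Differentiated L6 myotubes stimulated 15 min with test compound or isoprenaline, each at final 1×10^−5 M, in HBSS with 1% BSA, 5 mM HEPES, 1 mM IBMX, pH 7.4. cAMP production by the compound expressed relative to that induced by the same concentration of isoprenaline.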

Assay [2] relates to differentiated L6-myotubes. Kind of assay: Glucose uptake screen (Biological example 1 of WO 2019/053427). Format: cell-based. To be noted: compound at 10 μM, activity relative to isoproterenol at 10 μM, read-out: Biological example 1 of WO 2019/053427 (GU). An outline of the steps: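 Rat L6 myoblasts were differentiated into myotubes over 7 days in 2% FBS, then serum-starved overnight. Cells were stimulated with 1×10^−5 M compound plus β2 antagonist ICI-118551 for 1 h 40 min and re-dosed for 20 min in glucose-free medium. Uptake of 50 nM ^3H-2-deoxyglucose over 10 min was counted after NaOH lysis.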

`CN(C)C(=O)N[C@H]1CC[C@H](CC(C)(C)NC[C@H](O)c2cccc(F)c2)CC1` [Compound 430, (R)-2-{1,1-dimethyl-2-[(1r,4R)-4-(3,3-dimethylureido)cyclohexyl]ethylamino}-1-(m-fluorophenyl)-1-ethanol]: the Emax at 10 µM in assay [1] was 50 to 75%; in assay [2], > 75%.
The matching figures for `CCS(=O)(=O)N[C@H]1CC[C@H](CC(C)(C)NC[C@H](O)c2cncc(F)c2)CC1` [Compound 525, (R)-2-{1,1-dimethyl-2-[(1r,4R)-4-(ethylsulfonylamino)cyclohexyl]ethylamino}-1-(5-fluoro-3-pyridyl)-1-ethanol]: < 25% and 50 to 75%.
As to `O[C@@H](CNCC[C@H]1CC[C@@H](OCc2ccccc2)CC1)c1cccc(F)c1` [Compound 287, (R)-1-(m-fluorophenyl)-2-{2-[(1s,4S)-4-(benzyloxy)cyclohexyl]eth-ylamino}-1-ethanol], the results for the Emax at 10 µM in assay [1] and in assay [2] were < 25% and 50 to 75%, respectively.
For `CC(C)(NC[C@H](O)c1cncc(F)c1)[C@H]1CC[C@H](C(=O)O)CC1` [Compound 390, (1R,4r)-8-[(R)-2-(5-fluoro-3-pyridyl)-2-hydroxyethylamino]-7-hydroxy-p-menthan-7-one], the Emax at 10 µM is < 25% in assay [1] and 50 to 75% in assay [2].
On the same counts, the results for `O[C@H](c1cncc(F)c1)C12CCC(CCc3ccc(OC(F)(F)F)cc3)(CC1)N2` [Compound 545, (R)-(5-fluoro-3-pryidyl){4-[2-(p-trifluoromethoxyphenyl)ethyl]-7-azabicyclo[2.2.1]hept-1-yl}methanol] are < 25% and < 25%.
The matching figures for `O[C@@H](CNC1(C(F)(F)F)CC1)c1cccc(F)c1` [Compound 118, (R)-1-(m-fluorophenyl)-2-[1-(trifluoromethyl)cyclopro-pylamino]-1-ethanol]: < 25% and 50 to 75%.
The matching figures for `CC(=O)N[C@H]1CC[C@H](CC(C)(C)NC[C@@H](O)c2cccc(C#N)n2)CC1` [Compound 427, N-[(1R,4r)-4-{2-[(R)-2-(6-cyano-2-pyridyl)-2-hydroxyethylamino]-2-methylpropyl}cyclohexyl]acetamide]: < 25% and < 25%.
For `CC(C)(C[C@H]1CC[C@H](C(=O)O)CC1)NC[C@H](O)c1cncc(F)c1` [Compound 356, (1R,4r)-4-{2-[(R)-2-(5-fluoro-3-pyridyl)-2-hydroxyethylamino]-2-methylpropyl}cyclohexanecarboxylic acid], the Emax at 10 µM in assay [1] and in assay [2] was < 25% in each case.
On to `CO[C@H]1CC[C@H](CCC(C)(C)NC[C@H](O)c2cncc(F)c2)CC1` [Compound 267, (R)-2-{1,1-dimethyl-3-[(1r,4S)-4-methoxycyclohexyl]propyl-amino}-1-(5-fluoro-3-pyrdiyl)-1-ethanol], for which the figures for the Emax at 10 µM in assay [1] and in assay [2] were < 25% and 25 to 50%, respectively.
On the same counts, the results for `CCCC1(CCC)CC[C@H]([C@H](O)c2cccc(F)c2)N1` [Compound 159, (R)-[(R)-5,5-dipropyl-2-pyrrolidinyl](m-fluorophenyl)methanol] are < 25% and 50 to 75%.
For `CC1(C)C[C@H]([C@@H](O)c2cccc(Cl)c2)N1` [Compound 233, (S)-[(R)-4,4-dimethyl-2-azetidinyl](m-chlorophenyl)methanol], the Emax at 10 µM in assay [1] and in assay [2] was < 25% throughout.
For `CCOC(=O)CO[C@H]1CC[C@@H](C(C)(C)NC[C@H](O)c2cccc(F)c2)CC1` [Compound 407, ethyl [(1S,4s)-4-{1-[(R)-2-(m-fluorophenyl)-2-hydroxyethylamino]-1-methylethyl}cyclohexyloxy]acetate], the Emax at 10 µM in assay [1] is < 25%; in assay [2] it was 50 to 75%.
`CC12CC(C1)[C@@H]([C@@H](O)c1cncc(F)c1)N2` [Compound 221, (S)-{(S)-1-methyl-2-azabicyclo[2.1.1]hex-3-yl}(5-fluoro-3-pyridyl)methanol]: the Emax at 10 µM in assay [1] is < 25%; in assay [2], 50 to 75%.
The matching figures for `CC(C)(C[C@H]1CC[C@@H](NC(=O)OC(C)(C)C)CC1)NC[C@H](O)c1cccc(F)c1` [Compound 449]: < 25% and 50 to 75%.
The matching figures for `CC(C)(C)NC[C@H](O)c1ccccc1F` [Compound 78, (R)-2-(tert-butylamino)-1-(o-fluorophenyl)-1-ethanol]: 25 to 50% and > 75%.
On the same counts, the results for `OC(CNCC1CCCCC1)c1ccccc1` (centres unmarked) [Compound 7, 2-[(cyclohexylmethyl)ami-no]-1-phenyl-1-ethanol] are < 25% and 25 to 50%.
With `CC(C)(C[C@H]1CC[C@H](NS(C)(=O)=O)CC1)NC[C@H](O)c1cccc(F)c1` [Compound 382, (R)-2-{1,1-dimethyl-2-[(1r,4R)-4-(mesylamino)cyclohexyl]ethylamino}-1-(m-fluorophenyl)-1-ethanol], the Emax at 10 µM in assay [1] was 25 to 50%; in assay [2], > 75%.
The matching figures for `CS(=O)(=O)Nc1ccc(CC23CCC([C@@H](O)c4cccc(F)c4)(CC2)N3)cc1` [Compound 474, (S)-(m-fluorophenyl)(4-{[p-(mesylamino)phenyl]methyl}-7-azabicyclo[2.2.1]hept-1-yl)methanol]: < 25% and 50 to 75%.
Take `CC(C)(C[C@H]1CC[C@@H](NS(C)(=O)=O)CC1)NC[C@@H](O)c1cccc(C#N)n1` [Compound 424, 6-[(R)-2-{1,1-dimethyl-2-[(1s,4S)-4-(mesylamino)cyclohexyl]ethylamino}-1-hydroxyethyl]-2-pyridinecarbonitrile]: the Emax at 10 µM in assay [1] is < 25%; in assay [2] it was 25 to 50%.
On the same counts, the results for `CC1(C)CCC[C@H]([C@@H](O)c2ccccc2F)N1` [Compound 176, (S)-[(R)-6,6-dimethyl-2-piperidyl](o-fluorophenyl)methanol] are 25 to 50% and > 75%.
The matching figures for `CO[C@H]1CC[C@H](C[C@H]2CC[C@H]([C@H](O)c3ccccc3F)N2)CC1` [Compound 339, (R)-[(2R,5R)-5-{[(1r,4R)-4-methoxycyclohexyl]methyl}-2-pyrrolidinyl](o-fluorophenyl)methanol]: 25 to 50% and > 75%.
On the same counts, the results for `O[C@@H](CNCCC[C@H]1CC[C@H](O)CC1)c1cncc(F)c1` [Compound 305, (R)-1-(5-fluoro-3-pyridyl)-2-{3-[(1r,4S)-4-hydroxycyclohexyl]propylamino}-1-ethanol] are < 25% and 25 to 50%.
On to `CO[C@H]1CC[C@H](CCNC[C@H](O)c2cccc(F)c2)CC1` [Compound 224, (R)-1-(m-fluorophenyl)-2-{2-[(1r,4R)-4-methoxycyclohexyl]ethyl-amino}-1-ethanol], for which the values for the Emax at 10 µM in assay [1] and in assay [2] were < 25% and 25 to 50%, respectively.
The matching figures for `CO[C@H]1CC[C@H](C[C@H]2CC[C@H]([C@@H](O)c3cccc(F)c3)N2)CC1` [Compound 334, (S)-[(2R,5R)-5-{[(1r,4R)-4-methoxycyclohexyl]methyl}-2-pyrrolidinyl](m-fluorophenyl)methanol]: < 25% and 25 to 50%.
On the same counts, the results for `CC(C)(C[C@H]1CC[C@@H](NC(=O)C(F)(F)F)CC1)NC[C@H](O)c1cccc(F)c1` [Compound 454, N-[(1S,4s)-4-{2-[(R)-2-(m-fluorophenyl)-2-hydroxyethylamino]-2-methylpropyl}cyclohexyl]trifluoroacetamide] are < 25% and > 75%.
On the same counts, the results for `C[C@H]1CC[C@@H]([C@@H](O)c2ccccc2)N1` (racemic) [Compound 39, Racemic mixture of (R)-[(2R,5R)-5-methyl-2-pyrrolidinyl]phenylmeth-anol and (S)-[(2S,5S)-5-methyl-2-pyrrolidinyl]phenylmeth-anol] are < 25% and 50 to 75%.
Regarding `CS(=O)(=O)N(Cc1ccccc1)[C@H]1CC[C@@H](C[C@@H]2CC[C@H]([C@@H](O)c3cccc(F)c3)N2)CC1` [Compound 509, (S)-[(2R,5S)-5-({(1s,4R)-4-[(benzyl)-N-mesylamino]cyclohexyl}methyl)-2-pyrrolidinyl](m-fluorophenyl)methanol], the Emax at 10 µM in assay [1] and in assay [2] was < 25% each time.
With `O[C@@H](c1cccc(F)c1)C12CCC(CCc3cccnc3)(CC1)N2` [Compound 445, (S)-(m-fluorophenyl){4-[2-(3-pyridyl)ethyl]-7-azabicyclo[2.2.1]hept-1-yl}methanol], the Emax at 10 µM was < 25% in assay [1] and > 75% in assay [2].
In the case of `CCCCNC[C@H](O)c1cnc(NC(=O)C(C)C)s1` [Compound 74, N-{5-[(2S)-2-(butylamino)-1-hydroxyethyl]-1,3-thiazol-2-yl}2-methylpropionamide], the Emax at 10 µM in assay [1] is < 25%; in assay [2], 25 to 50%.
The matching figures for `CC12CC(C1)[C@@H]([C@@H](O)c1ccccc1F)N2` [Compound 211, (S)-{(S)-1-methyl-2-azabicyclo[2.1.1]hex-3-yl}(o-fluorophenyl)methanol]: < 25% and > 75%.
The matching figures for `O[C@H](c1cncc(F)c1)[C@H]1CC[C@H](Cc2ccc(Cl)cc2)N1` [Compound 406, (R)-{(2R,5R)-5-[(p-chlorophenyl)methyl]-2-pyrrolidinyl}(5-fluoro-3-pyridyl)methanol]: < 25% and > 75%.
